Measurements published in patent US5286737A, “Method for inhibiting aromatase” (Kureha Kagaku Kogyo Kabushiki Kaisha, priority 1992, dated 1994).
Like-named read-outs stand apart in the source and are kept apart here.

How the values were obtained:
mastocarcinoma = assay: Inhibition of tumor growth in rats with mastocarcinoma after 7,12-dimethylbenzanthracene; format: in vivo, Sprague-Dawley rats; settings: Rattus norvegicus, 600 h, read-out: I.R. (inhibition rate of tumor growth)
Procedure: Female Sprague-Dawley rates aged 50 days were orally given 7,12-dimethylbenzanthracene (15 mg/kg) and observed for two months. The rats that developed spontaneous mastocarcinoma were selected and divided into three groups of 15 animals.
The first group was administered daily an ip injection for 20 consecutive days in an amount of 20 mg/kg (body weight) of the compounds in a physiological salt solution (10 ml).
The second group was also treated in the same manner as the first group except that 4-hydroxyandrostenedione was used as a positive control.
The third group was administered only an amount of 10 ml of a physiological salt solution.
After 5 days from the last injection, the rats were sacrificed to enucleate tumors.
The tumors were weighed and the mean tumor weight (T) of the first and the second groups was calculated. The mean tumor weight (C) of the third group was also calculated. […] [formula]

aromatase = target: T1, aromatase (Homo sapiens, UniProt P11511); assay: Aromatase inhibitory activity (H14COOH release from [19-14C]4-androstene-3,17-dione, human placenta microsomes); format: biochemical
T1 construct: microsomes arising from human placenta (0.1 mg/ml, protein concentration); from tissue; host or cells: human placenta microsomes
T1 sequence (P11511 1-503): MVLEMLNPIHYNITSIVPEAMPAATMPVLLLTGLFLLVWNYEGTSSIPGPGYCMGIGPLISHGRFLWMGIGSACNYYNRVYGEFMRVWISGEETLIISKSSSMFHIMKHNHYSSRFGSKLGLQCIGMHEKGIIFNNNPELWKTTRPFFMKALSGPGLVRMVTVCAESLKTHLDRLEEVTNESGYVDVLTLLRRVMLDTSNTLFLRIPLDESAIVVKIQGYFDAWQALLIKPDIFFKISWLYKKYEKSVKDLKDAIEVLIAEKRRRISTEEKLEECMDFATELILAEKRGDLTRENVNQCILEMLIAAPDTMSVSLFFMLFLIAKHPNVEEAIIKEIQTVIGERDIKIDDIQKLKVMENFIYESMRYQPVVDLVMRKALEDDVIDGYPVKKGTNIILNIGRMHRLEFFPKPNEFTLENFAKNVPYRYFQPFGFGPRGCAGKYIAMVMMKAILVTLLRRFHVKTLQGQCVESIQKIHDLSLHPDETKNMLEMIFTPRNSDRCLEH
Procedure: The aromatase inhibitory activity was measured in the manner described by Covey, D. F., Biochem. and Biophys. Res. Commun., 157 (1) 81-86 (1988). The inhibitory activity of the aromatase with the compounds was evaluated in a 50% inhibitory concentration (IC50) of the aromatase activity.
Aromatase activity was measured in the manner described by Covey, D. F., Biochem. Biophys. Res. Commun. 157 (1), 81-86 (1988).
The inhibitory activity of the aromatase with the compounds was evaluated in 50% inhibitory concentration (IC50) of the aromatase.
An aromatase base was taken from microsomes of human placenta and [19-^14 C]4-androstene-3,17 dione was used as a substrate. H^14 COOH was released into a reaction mixture after aromatization and its radioactivity was measured to evaluate the aromatase activity.
The inhibitory activity of the aromatase and the concentration of the compounds were depicted in a graph from which the IC50 was calculated.
To a solution of phosphoric acid buffer, [19-^14 C]4-androstene-3,17-dione (1×10^-6 M, 2 kBq/ml), microsomes arising from human placenta (0.1 mg/ml, protein concentration), coenzyme (2×10^-3 M, […]), glucose-6-phosphoric acid (4×10^-3 M), and glucose-6-phosphoric acid dehydrogenase (4U/ml) were added and reacted under stirring at 37° C. for 30 min.
The compound that was dissolved in DMSO was added into the reaction mixture and the final concentration of MDSO was in the range of 0.1 to 0.55% by volume. Chloroform (5 ml) was then added into the reaction mixture to terminate the reaction and to allow for recovery of the H^14 COOH in a water layer. The collected water layer (0.1 ml) was added in liquid scintillation cocktail (Atomlight, duPont, 4 ml) to measure its radioactivity. 4-Hydroxyandrostenedione was used as a positive control.

[1] = female Sprague-Dawley rats, daily ip 20 mg/kg for 20 consecutive days, tumors weighed 5 days after last injection
[2] = microsomes of human placenta, 0.1 mg/ml protein, substrate [19-14C]4-androstene-3,17-dione 1×10^-6 M, 37° C., 30 min, read-out: 50% inhibitory concentration (IC50) of the aromatase activity

Row | SMILES | inhibition in vivo at 20 mg/kg (mastocarcinoma; [1]) [%] | IC50 (aromatase) [µM] | IC50 (aromatase; [2]) [µM] | inhibition in vivo at 20 mg/kg (mastocarcinoma; ip) [%]
1 | OC1(Cn2cncn2)CCCC1Cc1ccc(F)cc1 (stereo not shown) [Comp. No. 1, 2-(p-Fluorobenzyl)-1-(1,2,4-triazoly-1-yl-methyl)cyclopentanol] | 60 | 3.5 |  | 
2 | OC1(Cn2ccnc2)CCCC1Cc1ccc(F)cc1 (stereo not shown) [Comp. No. 2, 2-(-Fluorobenzyl)-1-(imidazoly-1-ylmethyl)cyclopentanol] | 70 | 7 |  | 
3 | OC1(Cn2cncn2)CCCC1Cc1ccc(F)cc1F (stereo not shown) [Comp. No. 9, 2-(2,4-Difluorobenzyl)-1-(1,2,4-triazoly-1-yl-methyl)cyclopentanol] | 72 | 7.5 |  | 
4 | OC1(Cn2ccnc2)CCCC1Cc1ccc(F)cc1F (stereo not shown) [Comp. No. 10, 2-(2,4-Difluorobenzyl)-1-(imidazoly-1-yl-methyl)cyclopentanol] | 85 | 0.48 |  | 
5 | C[C@]12CCC(=O)C(O)=C1CC[C@@H]1[C@@H]2CC[C@]2(C)C(=O)CC[C@@H]12 [Control, 4-Hydroxyandrostenedione, reference compound] |  | 20 |  | 
6 | OC1(Cn2cncn2)CCCC1Cc1ccc(Cl)cc1 (stereo not shown) [compound 3] | 64 | 3.8 |  | 
7 | OC1(Cn2ccnc2)CCCC1Cc1ccc(Cl)cc1 (stereo not shown) [compound 4] | 74 | 5 |  | 
8 | N#Cc1ccc(CC2CCCC2(O)Cn2cncn2)cc1 (stereo not shown) [compound 5] | 60 | 7.3 |  | 
9 | N#Cc1ccc(CC2CCCC2(O)Cn2ccnc2)cc1 (stereo not shown) [compound 6] | 53 |  | 4.5 | 
10 | CC1(C)CCC(Cc2ccccc2-c2ccccc2)C1(O)Cn1ccnc1 (stereo not shown) [compound 7] | 58 |  | 3.7 | 
11 | CC1(C)CCC(Cc2ccc(-c3ccccc3)cc2)C1(O)Cn1ccnc1 (stereo not shown) [compound 8] | 60 |  | 4.1 | 
12 | CC(C)(C)c1ccc(CC2CCC(C)(C)C2(O)Cn2cncn2)cc1 (stereo not shown) [compound 11] | 71 | 2.6 |  | 
13 | CC(C)(C)c1ccc(CC2CCC(C)(C)C2(O)Cn2ccnc2)cc1 (stereo not shown) [compound 12] | 73 | 4.2 |  | 
14 | CC(C)c1ccc(CC2CCC(C)(C)C2(O)Cn2cncn2)cc1 (stereo not shown) [compound 13] | 55 | 8.4 |  | 
15 | CC(C)c1ccc(CC2CCC(C)(C)C2(O)Cn2ccnc2)cc1 (stereo not shown) [compound 14] | 63 | 6 |  | 
16 | CC1(C)CCC(Cc2ccc(Cl)cc2)C1(O)Cn1cncn1 (stereo not shown) [compound 15] |  | 4.7 |  | 74
17 | CC1(C)CCC(Cc2ccc(Cl)cc2)C1(O)Cn1ccnc1 (stereo not shown) [compound 16] | 83 | 0.3 |  | 
18 | CC1(C)CCC(Cc2ccc(F)cc2F)C1(O)Cn1ccnc1 (stereo not shown) [compound 17] | 67 | 0.4 |  | 
19 | CC1(C)CCC(Cc2ccc(C(F)(F)F)cc2)C1(O)Cn1cncn1 (stereo not shown) [compound 18] | 65 | 7.2 |  | 
20 | CC1(C)CCC(Cc2ccc(C(F)(F)F)cc2)C1(O)Cn1ccnc1 (stereo not shown) [compound 19] | 63 | 5.5 |  | 
21 | CC(C)c1ccc(CC2CCCC2(O)Cn2cncn2)cc1 (stereo not shown) [compound 20] | 60 | 4.3 |  | 
22 | CC(C)c1ccc(CC2CCCC2(O)Cn2ccnc2)cc1 (stereo not shown) [compound 21] | 72 |  | 6.3 | 
